Legend:
[1] = molecular target: T1, Gamma-aminobutyric acid receptor subunit alpha-1 (Rattus norvegicus, UniProt P62813)
[2] = molecular target: T2, Alpha-1A adrenergic receptor (Homo sapiens, UniProt P35348); format: functional, cell-based
T2 sequence (P35348 whole entry): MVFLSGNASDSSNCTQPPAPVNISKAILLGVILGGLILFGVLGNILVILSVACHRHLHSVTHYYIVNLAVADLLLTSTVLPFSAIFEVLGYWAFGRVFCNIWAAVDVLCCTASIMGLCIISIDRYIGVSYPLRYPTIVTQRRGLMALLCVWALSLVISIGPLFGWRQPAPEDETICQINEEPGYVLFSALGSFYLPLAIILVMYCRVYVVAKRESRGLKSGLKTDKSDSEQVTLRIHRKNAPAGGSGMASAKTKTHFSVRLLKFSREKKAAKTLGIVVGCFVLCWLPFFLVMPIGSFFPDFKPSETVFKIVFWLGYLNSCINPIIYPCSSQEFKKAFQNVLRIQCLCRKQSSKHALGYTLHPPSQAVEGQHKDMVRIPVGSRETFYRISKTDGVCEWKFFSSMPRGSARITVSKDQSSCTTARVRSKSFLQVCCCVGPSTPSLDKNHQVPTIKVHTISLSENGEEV

[3] = molecular target: T3, Muscarinic acetylcholine receptor M1 (Homo sapiens, UniProt P11229); format: functional
T3 sequence (P11229 whole entry): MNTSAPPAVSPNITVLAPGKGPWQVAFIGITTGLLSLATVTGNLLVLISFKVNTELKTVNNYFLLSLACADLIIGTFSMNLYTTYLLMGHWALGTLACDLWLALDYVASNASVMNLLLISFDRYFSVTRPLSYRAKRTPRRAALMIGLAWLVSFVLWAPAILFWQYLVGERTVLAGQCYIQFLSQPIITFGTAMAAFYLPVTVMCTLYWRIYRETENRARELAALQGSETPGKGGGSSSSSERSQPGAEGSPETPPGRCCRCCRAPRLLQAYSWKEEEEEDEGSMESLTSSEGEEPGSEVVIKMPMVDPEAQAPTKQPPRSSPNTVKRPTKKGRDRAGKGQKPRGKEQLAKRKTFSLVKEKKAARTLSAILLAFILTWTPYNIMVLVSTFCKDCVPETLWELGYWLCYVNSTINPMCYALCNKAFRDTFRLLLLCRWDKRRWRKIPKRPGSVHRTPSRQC

[4] = molecular target: T4, Muscarinic acetylcholine receptor M2 (Homo sapiens, UniProt P08172); format: functional, cell-based
T4 sequence (P08172 whole entry): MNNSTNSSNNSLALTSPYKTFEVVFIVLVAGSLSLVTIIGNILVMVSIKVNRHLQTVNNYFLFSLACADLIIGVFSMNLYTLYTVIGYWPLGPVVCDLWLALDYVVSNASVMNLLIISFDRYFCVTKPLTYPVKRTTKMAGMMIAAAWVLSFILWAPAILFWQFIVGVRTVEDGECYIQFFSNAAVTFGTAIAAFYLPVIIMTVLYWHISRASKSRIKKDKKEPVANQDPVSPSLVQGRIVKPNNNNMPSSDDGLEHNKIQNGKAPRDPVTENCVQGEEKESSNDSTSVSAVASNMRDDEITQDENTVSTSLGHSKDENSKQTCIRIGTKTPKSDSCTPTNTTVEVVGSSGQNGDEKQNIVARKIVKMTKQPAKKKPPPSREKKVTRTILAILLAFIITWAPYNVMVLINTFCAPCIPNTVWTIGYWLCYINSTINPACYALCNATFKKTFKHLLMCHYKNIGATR

Cannabinoid receptor 1 = Cannabinoid receptor 1 (Homo sapiens, UniProt P21554); format: functional, cell-based
Sequence of Cannabinoid receptor 1 (P21554 whole entry): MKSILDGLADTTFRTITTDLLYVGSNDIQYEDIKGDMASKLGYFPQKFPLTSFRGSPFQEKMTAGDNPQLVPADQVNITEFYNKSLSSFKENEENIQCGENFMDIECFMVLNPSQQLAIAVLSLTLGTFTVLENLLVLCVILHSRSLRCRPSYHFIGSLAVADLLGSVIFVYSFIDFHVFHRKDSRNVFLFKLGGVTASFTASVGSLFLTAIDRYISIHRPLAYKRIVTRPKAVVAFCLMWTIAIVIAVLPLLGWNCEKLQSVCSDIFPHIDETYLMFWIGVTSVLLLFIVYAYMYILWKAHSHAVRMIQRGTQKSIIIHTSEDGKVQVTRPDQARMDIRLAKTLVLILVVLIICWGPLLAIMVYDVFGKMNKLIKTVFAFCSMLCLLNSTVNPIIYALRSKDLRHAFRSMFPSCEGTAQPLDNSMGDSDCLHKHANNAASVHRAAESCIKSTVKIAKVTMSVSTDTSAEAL

D(1A) dopamine receptor = D(1A) dopamine receptor (Homo sapiens, UniProt P21728); format: functional, cell-based
Sequence of D(1A) dopamine receptor (P21728 whole entry): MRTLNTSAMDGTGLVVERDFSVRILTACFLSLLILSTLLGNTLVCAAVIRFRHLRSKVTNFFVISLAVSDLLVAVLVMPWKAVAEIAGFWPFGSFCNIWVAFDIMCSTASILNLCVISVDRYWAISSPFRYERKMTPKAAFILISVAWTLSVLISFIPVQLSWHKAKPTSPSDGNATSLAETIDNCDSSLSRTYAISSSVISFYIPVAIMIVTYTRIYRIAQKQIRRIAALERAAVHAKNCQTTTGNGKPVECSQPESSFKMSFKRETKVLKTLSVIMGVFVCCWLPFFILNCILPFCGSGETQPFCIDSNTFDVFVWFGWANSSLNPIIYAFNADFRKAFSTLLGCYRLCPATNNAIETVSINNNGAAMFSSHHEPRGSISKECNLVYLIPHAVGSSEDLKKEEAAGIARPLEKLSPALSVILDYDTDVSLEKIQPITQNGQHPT

[5] = molecular target: T1, Gamma-aminobutyric acid receptor subunit alpha-1; remark: listed apart in the source
[6] = molecular target: Glutamate receptor ionotropic, NMDA 1 (Rattus norvegicus, UniProt P35439)
[7] = molecular target: 5-hydroxytryptamine receptor 2B (Homo sapiens, UniProt P41595); format: functional, cell-based
Sequence of 5-hydroxytryptamine receptor 2B (P41595 whole entry): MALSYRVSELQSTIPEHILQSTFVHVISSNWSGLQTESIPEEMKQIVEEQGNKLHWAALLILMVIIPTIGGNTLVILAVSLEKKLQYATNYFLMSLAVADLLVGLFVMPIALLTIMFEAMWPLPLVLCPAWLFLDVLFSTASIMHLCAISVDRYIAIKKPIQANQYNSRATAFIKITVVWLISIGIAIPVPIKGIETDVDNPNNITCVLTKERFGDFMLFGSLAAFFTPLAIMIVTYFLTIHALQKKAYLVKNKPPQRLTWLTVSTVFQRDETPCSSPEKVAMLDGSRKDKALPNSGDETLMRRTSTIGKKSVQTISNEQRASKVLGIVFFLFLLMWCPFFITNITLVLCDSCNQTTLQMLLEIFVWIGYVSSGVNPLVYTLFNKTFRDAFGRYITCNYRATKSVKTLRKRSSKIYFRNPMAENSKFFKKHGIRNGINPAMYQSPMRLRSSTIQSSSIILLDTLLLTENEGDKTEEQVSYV

[8] = molecular target: Delta-type opioid receptor (Homo sapiens, UniProt P41143)
Sequence of Delta-type opioid receptor (P41143 whole entry): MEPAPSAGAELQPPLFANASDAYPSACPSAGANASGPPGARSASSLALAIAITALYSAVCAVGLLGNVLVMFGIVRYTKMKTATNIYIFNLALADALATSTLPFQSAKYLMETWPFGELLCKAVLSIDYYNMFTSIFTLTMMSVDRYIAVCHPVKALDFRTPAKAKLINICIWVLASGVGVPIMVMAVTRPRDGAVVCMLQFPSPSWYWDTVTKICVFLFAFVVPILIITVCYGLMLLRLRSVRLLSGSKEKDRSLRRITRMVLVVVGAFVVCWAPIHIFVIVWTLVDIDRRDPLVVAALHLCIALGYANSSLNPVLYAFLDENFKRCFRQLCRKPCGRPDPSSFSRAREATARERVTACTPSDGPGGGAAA

[9] = molecular target: T5, Prostaglandin G/H synthase 1 (Rattus norvegicus, UniProt Q63921); format: functional
T5 sequence (Q63921 whole entry): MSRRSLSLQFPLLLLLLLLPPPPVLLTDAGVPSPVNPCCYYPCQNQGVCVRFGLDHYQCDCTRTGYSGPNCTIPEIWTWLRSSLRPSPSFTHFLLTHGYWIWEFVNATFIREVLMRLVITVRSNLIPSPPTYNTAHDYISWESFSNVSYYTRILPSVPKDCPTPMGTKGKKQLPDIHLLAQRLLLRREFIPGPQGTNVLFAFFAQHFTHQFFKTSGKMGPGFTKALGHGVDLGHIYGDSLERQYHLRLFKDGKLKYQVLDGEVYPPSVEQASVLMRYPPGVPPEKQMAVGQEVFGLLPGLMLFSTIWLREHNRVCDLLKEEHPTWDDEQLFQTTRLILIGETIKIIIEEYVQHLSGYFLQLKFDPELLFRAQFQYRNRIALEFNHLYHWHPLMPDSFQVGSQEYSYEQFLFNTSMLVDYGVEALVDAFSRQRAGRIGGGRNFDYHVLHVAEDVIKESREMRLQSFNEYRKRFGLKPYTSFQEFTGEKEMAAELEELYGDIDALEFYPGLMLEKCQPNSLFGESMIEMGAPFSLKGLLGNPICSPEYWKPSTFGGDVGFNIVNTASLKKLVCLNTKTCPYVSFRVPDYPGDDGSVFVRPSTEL

[10] = molecular target: T2, Alpha-1A adrenergic receptor; format: functional, cell-based; remark: listed apart in the source
Further: assay procedure not described here.

T1 sequence (P62813 whole entry): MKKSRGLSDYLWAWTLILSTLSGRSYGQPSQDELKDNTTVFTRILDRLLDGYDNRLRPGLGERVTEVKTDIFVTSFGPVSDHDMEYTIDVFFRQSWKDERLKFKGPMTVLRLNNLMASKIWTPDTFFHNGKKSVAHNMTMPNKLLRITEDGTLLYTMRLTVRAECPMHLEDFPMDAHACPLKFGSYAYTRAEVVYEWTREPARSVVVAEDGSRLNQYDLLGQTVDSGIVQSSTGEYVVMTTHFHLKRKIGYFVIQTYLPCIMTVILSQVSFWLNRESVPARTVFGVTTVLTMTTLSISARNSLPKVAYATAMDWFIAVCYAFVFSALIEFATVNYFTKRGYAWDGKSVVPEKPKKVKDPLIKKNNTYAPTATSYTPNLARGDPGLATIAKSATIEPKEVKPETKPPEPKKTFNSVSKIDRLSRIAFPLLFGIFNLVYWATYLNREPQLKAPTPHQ

`Cc1c(O)cccc1C(=O)N[C@@H](CSc1ccccc1)[C@H](O)CN1C[C@H]2CCCC[C@H]2C[C@H]1C(=O)NC(C)(C)C` was tested, and the AC50 [1] was > 30 µM.
For `NS(=O)(=O)c1cc(-c2nnn[nH]2)c(NCc2cccs2)cc1Cl` [AZOSEMIDE], the AC50 [2] was > 30 µM, the AC50 [3] was > 30 µM and the AC50 [4] was > 30 µM. The AC50 (Cannabinoid receptor 1) was > 30 µM, the AC50 (D(1A) dopamine receptor) was > 30 µM and the AC50 [5] was > 30 µM. For the same compound, the AC50 [6] was > 30 µM, the AC50 [7] was > 30 µM and the AC50 [8] was > 30 µM. For the same compound, the AC50 [9] was 19 µM and the AC50 [10] was > 30 µM.
With `C[N+](C)(C)CC(=O)O` [BETAINE] the AC50 [2] was > 30 µM, the AC50 [3] was > 30 µM and the AC50 [4] was > 30 µM. For the same compound, the AC50 (Cannabinoid receptor 1) was > 30 µM, the AC50 (D(1A) dopamine receptor) was > 30 µM and the AC50 [5] was > 30 µM. For the same compound, the AC50 [6] was > 30 µM, the AC50 [7] was > 30 µM and the AC50 [8] was > 30 µM. The AC50 [9] was > 30 µM and the AC50 [10] was > 30 µM.
`CCCC(=O)N1CCCN(c2nc(N)c3cc(OC)c(OC)cc3n2)CC1` [BUNAZOSIN] was tested, and the AC50 [2] was > 30 µM, the AC50 [3] was > 30 µM and the AC50 [4] was > 30 µM. For the same compound, the AC50 (Cannabinoid receptor 1) was > 30 µM, the AC50 (D(1A) dopamine receptor) was > 30 µM and the AC50 [5] was > 30 µM. For the same compound, the AC50 [6] was > 30 µM, the AC50 [7] was > 30 µM and the AC50 [8] was > 30 µM. The AC50 [9] was > 30 µM.
For `C[N+](C)(C)CCOC(N)=O` [CARBAMOYLCHOLINE], the AC50 [2] was > 30 µM, the AC50 (Cannabinoid receptor 1) was > 30 µM and the AC50 (D(1A) dopamine receptor) was > 30 µM. For the same compound, the AC50 [5] was > 10 µM, the AC50 [6] was > 10 µM and the AC50 [7] was > 30 µM. The AC50 [8] was > 30 µM, the AC50 [9] was > 10 µM and the AC50 [10] was > 30 µM.
`N[C@@H](CSCC(=O)O)C(=O)O` [CARBOCYSTEINE] was tested, and the AC50 [2] was > 30 µM, the AC50 [3] was > 30 µM and the AC50 [4] was > 30 µM. The AC50 (Cannabinoid receptor 1) was > 30 µM, the AC50 (D(1A) dopamine receptor) was > 30 µM and the AC50 [5] was > 30 µM. For the same compound, the AC50 [6] was > 30 µM, the AC50 [7] was > 30 µM and the AC50 [8] was > 30 µM. The AC50 [9] was > 30 µM and the AC50 [10] was > 30 µM.
For `CC(C)(N)Cc1ccc(Cl)cc1` [CHLORPHENTERMINE], the AC50 [2] was > 30 µM, the AC50 [3] was > 10 µM and the AC50 [4] was > 10 µM. For the same compound, the AC50 (Cannabinoid receptor 1) was > 30 µM, the AC50 (D(1A) dopamine receptor) was > 10 µM and the AC50 [5] was > 10 µM. The AC50 [6] was > 10 µM, the AC50 [7] was > 10 µM and the AC50 [8] was > 30 µM. The AC50 [9] was > 30 µM and the AC50 [10] was > 30 µM.
With `CN(C)[C@@H]1C(O)=C(C(N)=O)C(=O)[C@@]2(O)C(O)=C3C(=O)c4c(O)ccc(Cl)c4[C@@H](O)[C@H]3C[C@@H]12` [DEMECLOCYCLINE] the AC50 [3] was > 10 µM, the AC50 [4] was > 10 µM and the AC50 (D(1A) dopamine receptor) was > 10 µM. For the same compound, the AC50 [5] was > 10 µM, the AC50 [6] was > 10 µM and the AC50 [7] was > 10 µM. The AC50 [8] was > 30 µM and the AC50 [9] was > 10 µM.
In the case of `NS(=O)(=O)c1cc(Cl)c(Cl)c(S(N)(=O)=O)c1` [DICHLORPHENAMIDE], the AC50 [2] is reported as > 30 µM, the AC50 [3] is reported as > 10 µM and the AC50 [4] is reported as > 10 µM. The AC50 (Cannabinoid receptor 1) was > 30 µM, the AC50 (D(1A) dopamine receptor) was > 10 µM and the AC50 [5] was > 10 µM. For the same compound, the AC50 [6] was > 10 µM, the AC50 [7] was > 10 µM and the AC50 [8] was > 30 µM. The AC50 [9] was > 10 µM and the AC50 [10] was > 30 µM.
`CC1=NN(c2ccccc2)C(=O)C1` [EDARAVONE] was tested, and the AC50 [1] was > 30 µM.
`C=C1C[C@@H]2[C@H](CC[C@]3(C)C(=O)CC[C@@H]23)[C@@]2(C)C=CC(=O)C=C12` [EXEMESTANE] was tested, and the AC50 [2] was > 30 µM, the AC50 [3] was > 10 µM and the AC50 [4] was > 10 µM. For the same compound, the AC50 (Cannabinoid receptor 1) was > 30 µM, the AC50 (D(1A) dopamine receptor) was > 10 µM and the AC50 [5] was > 10 µM. For the same compound, the AC50 [6] was > 10 µM, the AC50 [7] was > 10 µM and the AC50 [8] was > 30 µM. For the same compound, the AC50 [9] was > 30 µM and the AC50 [10] was > 30 µM.

Reference: ChEMBL document CHEMBL5291721, “A preclinical secondary pharmacology resource illuminates target-adverse drug reaction associations of marketed drugs” (Nat Commun, 2023)
